We go through eight molecules from patent US20140234351A1, “CANCER VACCINES AND VACCINATION METHODS” (ImmunoCellular Therapeutics, Ltd., priority 2013, published 2014).

Like-named read-outs stand apart in the source and are kept apart here. Where no end group is shown, it is not given here.

In data set [1] the test system is human ovarian cancer stem cells 1031CSC.
Protocol: (§1) Human monocyte-derived DCs were generated using previously described methods. […] The DCs were washed and plated in 6-well plates at a concentration of 5×10^6 cells/well IFN-γ (1000 unit/ml), and then monophosphoryl lipid A (MPLA, 20-50 μg/ml) (Cat# L6895, Sigma, St. Louis) was added into the wells to mature the DC for 24 hr or 48 hrs.
(§2) In order to evaluate antigen-specific immune responses, CD8 T cells were isolated from fresh or frozen apheresis by positive selection using Dynabeads® CD8 Positive Isolation Kit (Life Technologies, Grand Island, N.Y.) and co-cultured with autologous mDC for four weeks. DCs were added weekly. Briefly, mDCs were pulsed with synthetic peptides (10 μg/μl) for 6-8 hours at 37° C., and then treated with 20 ug/ml Mitomycin C (Sigma-Aldrich, St. Louis, Mo.) for 25 min at 37° C. and 5% CO2. The mDCs (5×10^4 cells/well) were co-cultured with autologous CD8^+ T cells (5×10^5 cells/well) in a 96-well plate at 37° C., 5% CO2 in a final volume of 200 μl CTL medium (IMDM with 0.24 mM Asparagine, 0.55 mM L-Arginine, 1.5 mM L-Glutamine and 10% heat inactivated human AB serum). Half of the medium was replaced every other day by fresh culture medium containing 40 IU/ml IL-2 and 20 ng/ml IL-7, the 3rd and 4th week 40 U/ml of IL-2 was replaced with 25 ng/ml IL-15. In the culture medium, peptides could also be added to the culture well at a final concentration of 1-2 μg/ml.
(§3) DDAO-SE labeled target cells were mixed with effector cells at a 1:10 ratio in round-bottom 96 well plate and incubated overnight at 37° C., 5% CO2. The cells were washed, fixed, and permeabilized with Fix/Perm solution (BD Biosciences) and then stained for 30 minutes at 4° C. with 10 μl PE-labeled anti-cleaved caspase-3 monoclonal antibody, followed by Cyan flow cytometric analysis (Beckman Coulter, Inc).
Data set [2] concerns human ovarian cancer stem cells 882CSC.
Protocol: as §1, §2, §3
Data set [3] in a line: Immunogenicity in vitro of A2 peptide epitopes (Table 1). It is filed as cell-based. The note with it: Table 1, no method given.
Data set [4] deals with HLA-A*0201 molecules on T2 cells (Homo sapiens, UniProt P04439, D140Y/D185E/D98H/E176V/E277Q/G131W/G231S/I119V/I121R/I166T/I218V/L300P/L318F/N151K/N90K/P208A/P217A/Q86G/Q94H/R138H/R169H/T345S). Nature of the data set: T2 cell binding assay of HLA-A2 peptides. Conditions: peptide 75 μg/ml; for binding with T2 cells (affinity in words): conclusion of Example 11; for affinity to HLA-A*0201 molecules (up-regulation of HLA-A*0201 molecules): FIG. 5A.

The subject of data set [5] is human ovarian cancer stem cells 882CSC. Nature of the data set: Killing assay of peptide-specific CTLs (DDAO-SE and cleaved caspase-3 method). The note with it: target:effector 1:10, overnight, cleaved caspase-3, FIG. 6A.
Protocol: as §1, §2, §3
Data set [6] relates to human ovarian cancer stem cells 1031CSC. The data set is described as above. The note with it: target:effector 1:10, overnight, cleaved caspase-3, FIG. 6B.
Protocol: as §1, §2, §3

For `CSCC[C@H](NC(=O)[C@@H](N)C(C)C)C(=O)N[C@@H](C)C(=O)NCC(=O)N[C@H](C(=O)NCC(=O)N[C@@H](CO)C(=O)N1CCC[C@H]1C(=O)N[C@@H](Cc1ccc(O)cc1)C(=O)N[C@H](C(=O)O)C(C)C)C(C)C` [HER2p773], the “cytotoxicity of peptide-specific CTLs against 1031CSC” value (from here on “cytotoxicity … against 1031CSC”) in data set [1] is “efficiently recognize and lyse”. In addition, the “cytotoxicity of peptide-specific CTLs against 882CSC” value (“cytotoxicity … against 882CSC” for short) in data set [2] is “efficiently recognize and lyse”.

Turning to “EIWTHSYKV (listed as Homo sapiens) [FOLR1p191]”, the Immunogenicity in vitro result in data set [3] is on record as “Yes”. Besides, the “binding with T2 cells (affinity in words)” value (“binding with T2 cells” below) in data set [4] is “lower binding capacity”. The “affinity to HLA-A*0201 molecules (up-regulation of HLA-A*0201 molecules)” value in data set [4] (overnight) is “low affinity”. Besides, the “MFI index (relative binding affinity fluorescence index)” value in data set [4] (overnight, FIG. 5B) is listed as “less than 1”.

For “KVLEYVIKV (listed as Homo sapiens) [MAGEA1p278]”, in data set [3], the Immunogenicity in vitro entry was “Yes”. Moreover, the “binding with T2 cells” value in data set [4] was “high affinity binding”.

As for SLLFLLFSL (listed as Homo sapiens), the Immunogenicity in vitro result in data set [3] is “Yes”.

Take SLLMWITQC [NY-ESO-1p157]: in data set [3], the Immunogenicity in vitro result was “Yes”.

Take TLADFDPRV [EphA2p883]: the “cytotoxicity … against 882CSC” value in data set [5] is “efficiently recognize and lyse”. For the same molecule, the “cytotoxicity … against 1031CSC” value in data set [6] is “efficiently recognize and lyse”.

Turning to “VLPLTVAEV (listed as Homo sapiens) [mesothelinp531]”, the Immunogenicity in vitro entry in data set [3] is given as “Yes”. Besides, in data set [4], the “binding with T2 cells” value was “high affinity binding”. For the same molecule, the “affinity to HLA-A*0201 molecules (up-regulation of HLA-A*0201 molecules)” value in data set [4] (overnight) is given as “high affinities”.

For WLPFGFILI [IL-13Rα2p345], in data set [5], the “cytotoxicity … against 882CSC” value is “efficiently recognize and lyse”. The “cytotoxicity … against 1031CSC” value in data set [6] was “efficiently recognize and lyse”.
